From US11230543B2, “Biaryl monobactam compounds and methods of use thereof for the treatment of bacterial infections” (priority 2015, dated 2022)
Counter-ions that a name gives are not always drawn.

Assays:
[1] = test system: Pseudomonas aeruginosa expressing AmpC (CL5701); assay: Antibiotic activity: growth inhibitory concentration (OD600), Pseudomonas aeruginosa CL5701; type: cell-based; conditions: lowest concentration inhibiting 95% of bacterial growth; in the presence of β lactamase inhibitor Relebactam 4 μg/mL; 35±2° C. for 22 hours; tested range 100 μM to 0.098 μM
Method in brief: (§1)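 Growth inhibition by OD600 after 22 hours incubation at 35±2° C, reported as lowest concentration inhibiting 95% of growth (MITC95). Final compound range 100 μM to 0.098 μM, always combined with β-lactamase inhibitor relebactam (4 μg/mL final); inoculum ~2×10^5 CFU/mL in cation-adjusted Mueller-Hinton II broth.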

[2] = test system: Klebsiella pneumoniae expressing KPC-1 (CL6569); assay: Antibiotic activity: growth inhibitory concentration (OD600), Klebsiella pneumoniae CL6569; type: cell-based; conditions: lowest concentration inhibiting 95% of bacterial growth; in the presence of β lactamase inhibitor Relebactam 4 μg/mL; 35±2° C. for 22 hours; tested range 100 μM to 0.098 μM
Method in brief: as §1

Structure (SMILES)	PA_CL5701 MITC95 [1] [µM]	KP_CL6569 MITC95 [2] [µM]
CC1(C)[C@H](NC(=O)/C(=N\O[C@@H](COc2ccc(C3CN=C(NCCN)N3)cc2)C(=O)O)c2csc(N)n2)C(=O)N1OS(=O)(=O)O (stereo partly drawn) [Example 60, (2S)-3-(4-(2-((2-aminoethyl)amino)-4,5-dihydro-1H-imidazol-5-yl)phenoxy)-2-((((Z)-1-(2-aminothiazol-4-yl)-2-(((S)-2,2-dimethyl-4-oxo-1-(sulfooxy)azetidin-3-yl)amino)-2-oxoethylidene)amino)oxy)propanoic acid]	3.125	0.3906
CC1(C)[C@H](NC(=O)/C(=N\O[C@@H](COc2ccc(C(N)CNC3=NCCN3)cc2)C(=O)O)c2csc(N)n2)C(=O)N1OS(=O)(=O)O (stereo partly drawn) [Example 61, (2S)-3-(4-(1-amino-2-((4,5-dihydro-1H-imidazol-2-yl)amino)ethyl)phenoxy)-2-((((Z)-1-(2-aminothiazol-4-yl)-2-(((S)-2,2-dimethyl-4-oxo-1-(sulfooxy)azetidin-3-yl)amino)-2-oxoethylidene)amino)oxy)propanoic acid]	12.5	1.563
C[n+]1ccc(-c2ccc(OC[C@H](O/N=C(\C(=O)N[C@@H]3C(=O)N(OS(=O)(=O)[O-])C3(C)C)c3csc(N)n3)C(=O)O)cc2)cc1NCCN [Example 62, (S)-3-((Z)-2-(((S)-2-(4-(2-((2-aminoethyl)amino)-1-methylpyridin-1-ium-4-yl)phenoxy)-1-carboxyethoxy)imino)-2-(2-aminothiazol-4-yl)acetamido)-2,2-dimethyl-4-oxoazetidin-1-yl sulfate]	5.8	0.36
C[n+]1ccc(-c2ccc(OC[C@H](O/N=C(\C(=O)N[C@@H]3C(=O)N(OS(=O)(=O)[O-])C3(C)C)c3csc(N)n3)C(=O)O)cc2)cc1NCCCN [Example 63, (S)-3-((Z)-2-(((S)-2-(4-(2-((3-aminopropyl)amino)-1-methylpyridin-1-ium-4-yl)phenoxy)-1-carboxyethoxy)imino)-2-(2-aminothiazol-4-yl)acetamido)-2,2-dimethyl-4-oxoazetidin-1-yl sulfate]	6.25	0.3906
CC1(C)[C@H](NC(=O)/C(=N\O[C@@H](COc2ccc(-c3ccnc(NCCCN)c3)cc2)C(=O)O)c2csc(N)n2)C(=O)N1OS(=O)(=O)O [Example 64, (S)-3-((Z)-2-(((S)-2-(4-(2-((3-aminopropyl)amino)pyridin-4-yl)phenoxy)-1-carboxyethoxy)imino)-2-(2-aminothiazol-4-yl)acetamido)-2,2-dimethyl-4-oxoazetidin-1-yl sulfate]	12.5	1.563
C[n+]1ccc(-c2ccc(OC[C@H](O/N=C(\C(=O)N[C@@H]3C(=O)N(OS(=O)(=O)[O-])C3(C)C)c3csc(N)n3)C(=O)O)cc2)cc1NCC1CNC1 [Example 65, (S)-3-((Z)-2-(2-aminothiazol-4-yl)-2-(((S)-2-(4-(2-((azetidin-3-ylmethyl)amino)-1-methylpyridin-1-ium-4-yl)phenoxy)-1-carboxy-ethoxy)imino)acetamido)-2,2-dimethyl-4-oxoazetidin-1-yl sulfate]	12.5	0.3906
C[n+]1cc(-c2ccc(OC[C@H](O/N=C(\C(=O)N[C@@H]3C(=O)N(OS(=O)(=O)[O-])C3(C)C)c3csc(N)n3)C(=O)O)cc2)ccc1NCCN [Example 66, (S)-3-((Z)-2-(((S)-2-(4-(6-((2-aminoethyl)amino)-1-methylpyridin-1-ium-3-yl)phenoxy)-1-carboxyethoxy)imino)-2-(2-aminothiazol-4-yl)acetamido)-2,2-dimethyl-4-oxoazetidin-1-yl sulfate]	1.708	0.2135
C[n+]1cc(-c2ccc(OC[C@H](O/N=C(\C(=O)N[C@@H]3C(=O)N(OS(=O)(=O)[O-])C3(C)C)c3nc(N)sc3Cl)C(=O)O)cc2)ccc1NCCN [Example 67, (S)-3-((Z)-2-(2-amino-5-chlorothiazol-4-yl)-2-(((S)-2-(4-(6-((2-aminoethyl)amino)-1-methylpyridin-1-ium-3-yl)phenoxy)-1-carboxyethoxy)imino)acetamido)-2,2-dimethyl-4-oxoazetidin-1-yl sulfate]	6.25	0.7813
C[n+]1cc(-c2ccc(OC[C@H](O/N=C(\C(=O)N[C@@H]3C(=O)N(OS(=O)(=O)[O-])C3(C)C)c3csc(N)n3)C(=O)O)cc2F)ccc1NCCN [Example 68, (S)-3-((Z)-2-(((S)-2-(4-(6-((2-aminoethyl)amino)-1-methylpyridin-1-ium-3-yl)-3-fluorophenoxy)-1-carboxyethoxy)imino)-2-(2-aminothiazol-4-yl)acetamido)-2,2-dimethyl-4-oxoazetidin-1-yl sulfate]	3.125	0.1953
C[n+]1cc(-c2ccc(OC[C@H](O/N=C(\C(=O)N[C@@H]3C(=O)N(OS(=O)(=O)[O-])C3(C)C)c3nc(N)sc3Cl)C(=O)O)cc2F)ccc1NCCN [Example 69, (S)-3-((Z)-2-(2-amino-5-chlorothiazol-4-yl)-2-(((S)-2-(4-(6-((2-aminoethyl)amino)-1-methylpyridin-1-ium-3-yl)-3-fluorophenoxy)-1-carboxyethoxy)imino)acetamido)-2,2-dimethyl-4-oxoazetidin-1-yl sulfate]	3.125	0.3906
CC1(C)[C@H](NC(=O)/C(=N\O[C@@H](COc2ccc(-c3cnc(NCCN)nc3)cc2)C(=O)O)c2csc(N)n2)C(=O)N1OS(=O)(=O)O [Example 70, (S)-3-(4-(2-((2-aminoethyl)amino)pyrimidin-5-yl)phenoxy)-2-((((Z)-1-(2-aminothiazol-4-yl)-2-(((S)-2,2-dimethyl-4-oxo-1-(sulfooxy)azetidin-3-yl)amino)-2-oxoethylidene)amino)oxy)propanoic acid]	6.25	0.7813
C[n+]1cc(-c2ccc(OC[C@H](O/N=C(\C(=O)N[C@@H]3C(=O)N(OS(=O)(=O)[O-])C3(C)C)c3csc(N)n3)C(=O)O)cc2)ccc1N1CCNCC1 [Example 71, (S)-3-((Z)-2-(2-aminothiazol-4-yl)-2-(((S)-1-carboxy-2-(4-(1-methyl-6-(piperazin-1-yl)pyridin-1-ium-3-yl)phenoxy)ethoxy)imino)acetamido)-2,2-dimethyl-4-oxoazetidin-1-yl sulfate]	6.25	0.1953
C[n+]1cc(NCCN)ccc1-c1ccc(OC[C@H](O/N=C(\C(=O)N[C@@H]2C(=O)N(OS(=O)(=O)[O-])C2(C)C)c2csc(N)n2)C(=O)O)cc1 [Example 72, (S)-3-((Z)-2-(((S)-2-(4-(5-((2-aminoethyl)amino)-1-methylpyridin-1-ium-2-yl)phenoxy)-1-carboxyethoxy)imino)-2-(2-aminothiazol-4-yl)acetamido)-2,2-dimethyl-4-oxoazetidin-1-yl sulfate]	6.25	0.3906
C[n+]1cc(-c2ccc(OC[C@H](O/N=C(\C(=O)N[C@@H]3C(=O)N(OS(=O)(=O)[O-])C3(C)C)c3csc(N)n3)C(=O)O)cc2)ccc1NCC1(O)CNC1 [Example 73, (S)-3-((Z)-2-(2-aminothiazol-4-yl)-2-(((S)-1-carboxy-2-(4-(6-(((3-hydroxyazetidin-3-yl)methyl)amino)-1-methylpyridin-1-ium-3-yl)phenoxy)ethoxy)imino)acetamido)-2,2-dimethyl-4-oxoazetidin-1-yl sulfate]	3.125	0.1953
C[n+]1cc(-c2ccc(OC[C@H](O/N=C(\C(=O)N[C@@H]3C(=O)N(OS(=O)(=O)[O-])C3(C)C)c3csc(N)n3)C(=O)O)cc2)ccc1NCC1(N)CC1 [Example 74, (S)-3-((Z)-2-(((S)-2-(4-(6-(((1-aminocyclopropyl)methyl)amino)-1-methylpyridin-1-ium-3-yl)phenoxy)-1-carboxyethoxy)imino)-2-(2-aminothiazol-4-yl)acetamido)-2,2-dimethyl-4-oxoazetidin-1-yl sulfate]	6.25	0.1953
CC(CN)Nc1ccc(-c2ccc(OC[C@H](O/N=C(\C(=O)N[C@@H]3C(=O)N(OS(=O)(=O)[O-])C3(C)C)c3csc(N)n3)C(=O)O)cc2)c[n+]1C (stereo partly drawn) [Example 75, (3S)-3-((Z)-2-(((1S)-2-(4-(6-((1-aminopropan-2-yl)amino)-1-methylpyridin-1-ium-3-yl)phenoxy)-1-carboxyethoxy)imino)-2-(2-aminothiazol-4-yl)acetamido)-2,2-dimethyl-4-oxoazetidin-1-yl sulfate]	3.125	0.1953
CC(CN)Nc1ccc(-c2ccc(OC[C@H](O/N=C(\C(=O)N[C@@H]3C(=O)N(OS(=O)(=O)[O-])C3(C)C)c3csc(N)n3)C(=O)O)cc2)c[n+]1C (stereo partly drawn) [Example 76, (3S)-3-((Z)-2-(((1S)-2-(4-(6-((1-aminopropan-2-yl)amino)-1-methylpyridin-1-ium-3-yl)phenoxy)-1-carboxyethoxy)imino)-2-(2-aminothiazol-4-yl)acetamido)-2,2-dimethyl-4-oxoazetidin-1-yl sulfate]	3.125	0.1953
C[n+]1cc(-c2ccc(OC[C@H](O/N=C(\C(=O)N[C@@H]3C(=O)N(OS(=O)(=O)[O-])C3(C)C)c3csc(N)n3)C(=O)O)cc2)cnc1NCCN [Example 77, (S)-3-((Z)-2-(((S)-2-(4-(2-((2-aminoethyl)amino)-1-methylpyrimidin-1-ium-5-yl)phenoxy)-1-carboxyethoxy)imino)-2-(2-aminothiazol-4-yl)acetamido)-2,2-dimethyl-4-oxoazetidin-1-yl sulfate]	3.125	0.3906
